In patent US10435399B2, “HDAC6 inhibitory heterocyclic compound” (TAKEDA PHARMACEUTICAL COMPANY LIMITED, priority 2017, dated 2019):

target: T1, HDAC6 enzyme (Homo sapiens, UniProt Q9UBN7); experiment: HDAC6 enzyme inhibitory activity (HDAC-Glo I/II Assay kit); type: biochemical; details: 10 μM; wells without enzyme = 100% inhibition; read-out: HDAC6 inhibitory rate (%) (10 μM)
T1 construct: transducing full length HDAC6 gene into Sf-9 insect cells; GST; purchased SignalChem; host or cells: Sf-9 insect cells
T1 sequence (Q9UBN7 1-1215): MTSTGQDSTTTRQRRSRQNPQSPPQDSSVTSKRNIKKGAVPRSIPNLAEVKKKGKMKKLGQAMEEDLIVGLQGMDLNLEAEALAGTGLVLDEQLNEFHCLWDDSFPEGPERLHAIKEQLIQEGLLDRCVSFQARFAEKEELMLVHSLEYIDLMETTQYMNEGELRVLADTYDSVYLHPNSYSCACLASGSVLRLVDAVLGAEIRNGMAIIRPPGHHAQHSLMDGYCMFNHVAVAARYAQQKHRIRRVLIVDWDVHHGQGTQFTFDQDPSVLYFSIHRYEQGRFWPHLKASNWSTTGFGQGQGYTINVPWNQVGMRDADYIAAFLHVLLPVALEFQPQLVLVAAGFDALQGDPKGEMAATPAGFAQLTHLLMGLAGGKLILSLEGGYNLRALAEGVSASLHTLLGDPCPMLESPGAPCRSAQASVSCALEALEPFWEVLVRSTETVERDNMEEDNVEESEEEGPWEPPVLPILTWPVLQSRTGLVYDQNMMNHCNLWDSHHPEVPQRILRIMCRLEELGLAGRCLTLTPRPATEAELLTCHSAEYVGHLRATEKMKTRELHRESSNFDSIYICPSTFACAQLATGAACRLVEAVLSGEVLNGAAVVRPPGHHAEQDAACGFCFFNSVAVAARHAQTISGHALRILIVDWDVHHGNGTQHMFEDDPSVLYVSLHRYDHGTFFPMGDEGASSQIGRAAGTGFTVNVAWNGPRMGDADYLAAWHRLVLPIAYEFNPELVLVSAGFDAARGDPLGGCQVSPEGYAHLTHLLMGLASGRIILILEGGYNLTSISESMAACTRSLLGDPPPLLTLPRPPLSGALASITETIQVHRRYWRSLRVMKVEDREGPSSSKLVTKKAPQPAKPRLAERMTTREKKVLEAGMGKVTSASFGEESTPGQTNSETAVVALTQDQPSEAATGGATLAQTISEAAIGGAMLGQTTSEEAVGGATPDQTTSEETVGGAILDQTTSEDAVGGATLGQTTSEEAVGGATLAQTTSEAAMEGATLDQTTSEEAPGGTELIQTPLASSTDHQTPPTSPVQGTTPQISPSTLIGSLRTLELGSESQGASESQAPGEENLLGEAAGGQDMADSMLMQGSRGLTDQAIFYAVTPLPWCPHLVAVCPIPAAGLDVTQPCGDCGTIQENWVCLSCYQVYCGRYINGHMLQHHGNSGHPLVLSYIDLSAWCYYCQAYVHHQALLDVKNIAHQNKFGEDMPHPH
Method in brief: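 Sf-9-derived GST-purified full-length HDAC6 + cpd, 60 min RT, 24 mM Tris pH 7.5/0.6 mM glutathione/0.01% Tween-20; add HDAC-Glo substrate-developer, 20 min RT; luminescence. No-enzyme = 100% inhibition.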

| Compound | inhibition at 10 µM [%] |
| --- | --- |
| O=C1c2cc(-c3nnc(C(F)F)o3)ccc2CN1[C@@H]1CCCC[C@H]1NC(=O)C1(C(F)F)CC1 [Example 23, 1-(difluoromethyl)-N-((1R,2R)-2-(6-(5-(difluoromethyl)-1,3,4-oxadiazol-2-yl)-1-oxo-1,3-dihydro-2H-isoindol-2-yl)cyclohexyl)cyclopropanecarboxamide] | 99 |
| O=C1c2cc(-c3nnc(C(F)F)o3)ccc2CN1[C@@H]1CCCC[C@H]1NC(=O)C(F)(F)C(F)(F)F [Example 29, N-((1R,2R)-2-(6-(5-(difluoromethyl)-1,3,4-oxadiazol-2-yl)-1-oxo-1,3-dihydro-2H-isoindol-2-yl)cyclohexyl)-2,2,3,3,3-pentafluoropropanamide] | 101 |
| O=C1c2cc(-c3nnc(C(F)F)o3)ccc2CN1[C@@H]1CCCC[C@H]1NC(=O)C1(C(F)(F)F)CC1 [Example 32, N-((1R,2R)-2-(6-(5-(difluoromethyl)-1,3,4-oxadiazol-2-yl)-1-oxo-1,3-dihydro-2H-isoindol-2-yl)cyclohexyl)-1-(trifluoromethyl)cyclopropanecarboxamide] | 101 |
| O=C(N[C@@H]1CCCC[C@H]1N1Cc2ccc(-c3nnc(C(F)F)o3)cc2C1=O)C1CC(F)(F)C1 [Example 33, N-((1R,2R)-2-(6-(5-(difluoromethyl)-1,3,4-oxadiazol-2-yl)-1-oxo-1,3-dihydro-2H-isoindol-2-yl)cyclohexyl)-3,3-difluorocyclobutanecarboxamide] | 97 |
| CC(C)(C)OC(=O)N1CCCC[C@@H]1CN1Cc2ccc(-c3nnc(C(F)F)o3)cc2C1=O [Example 34, tert-butyl (2R)-2-((6-(5-(difluoromethyl)-1,3,4-oxadiazol-2-yl)-1-oxo-1,3-dihydro-2H-isoindol-2-yl)methyl)piperidine-1-carboxylate] | 98 |
| CC(C)(C)OC(=O)N1CCOC[C@@H]1CN1Cc2ccc(-c3nnc(C(F)F)o3)cc2C1=O [Example 35, tert-butyl (3S)-3-((6-(5-(difluoromethyl)-1,3,4-oxadiazol-2-yl)-1-oxo-1,3-dihydro-2H-isoindol-2-yl)methyl)morpholine-4-carboxylate] | 97 |
| O=C1c2cc(-c3nnc(C(F)F)o3)ccc2CN1C[C@H]1COCCN1 [Example 36, 6-(5-(difluoromethyl)-1,3,4-oxadiazol-2-yl)-2-((3S)-morpholin-3-ylmethyl)isoindolin-1-one] | 85 |
| O=C1CCCN1c1ccccc1N1Cc2ccc(-c3nnc(C(F)F)o3)cc2C1=O [Example 37, 6-(5-(difluoromethyl)-1,3,4-oxadiazol-2-yl)-2-(2-(2-oxopyrrolidin-1-yl)phenyl)isoindolin-1-one] | 99 |
| CCCCC(=O)N[C@@H]1CCCC[C@H]1N1Cc2ccc(-c3nnc(C(F)F)o3)cc2C1=O [Example 39, N-((1R,2R)-2-(6-(5-(difluoromethyl)-1,3,4-oxadiazol-2-yl)-1-oxo-1,3-dihydro-2H-isoindol-2-yl)cyclohexyl)pentanamide] | 96 |
| O=C1c2cc(-c3nnc(C(F)F)o3)ccc2CN1C[C@H]1CCCCN1S(=O)(=O)C1CC1 [Example 41, 2-(((2R)-1-(cyclopropylsulfonyl)piperidin-2-yl)methyl)-6-(5-(difluoromethyl)-1,3,4-oxadiazol-2-yl)isoindolin-1-one] | 98 |
| O=C1c2cc(-c3nnc(C(F)F)o3)ccc2CN1C[C@H]1CCCCN1C(=O)C1CC1 [Example 42, 2-(((2R)-1-(cyclopropylcarbonyl)piperidin-2-yl)methyl)-6-(5-(difluoromethyl)-1,3,4-oxadiazol-2-yl)isoindolin-1-one] | 98 |
| CC(C)OC(=O)N1CCCC[C@@H]1CN1Cc2ccc(-c3nnc(C(F)F)o3)cc2C1=O [Example 43, isopropyl (2R)-2-((6-(5-(difluoromethyl)-1,3,4-oxadiazol-2-yl)-1-oxo-1,3-dihydro-2H-isoindol-2-yl)methyl)piperidine-1-carboxylate] | 96 |
| O=C1c2cc(-c3nnc(C(F)F)o3)ccc2CN1C[C@H]1COCCN1S(=O)(=O)C1CC1 [Example 44, 2-(((3S)-4-(cyclopropylsulfonyl)morpholin-3-yl)methyl)-6-(5-(difluoromethyl)-1,3,4-oxadiazol-2-yl)isoindolin-1-one] | 100 |

More lines, now with the values ahead:

| inhibition at 10 µM [%] | Compound |
| --- | --- |
| 100 | O=C1OCCCN1[C@@H]1CCCC[C@H]1N1Cc2ccc(-c3nnc(C(F)F)o3)cc2C1=O [Example 21, 6-(5-(difluoromethyl)-1,3,4-oxadiazol-2-yl)-2-((1R,2R)-2-(2-oxo-1,3-oxazinan-3-yl)cyclohexyl)isoindolin-1-one] |
| 98 | O=C1OCCN1[C@@H]1CCCC[C@H]1N1Cc2ccc(-c3nnc(C(F)F)o3)cc2C1=O [Example 22, 6-(5-(difluoromethyl)-1,3,4-oxadiazol-2-yl)-2-((1R,2R)-2-(2-oxo-1,3-oxazolidin-3-yl)cyclohexyl)isoindolin-1-one] |
| 98 | O=C1c2cc(-c3nnc(C(F)F)o3)ccc2CN1[C@@H]1CCCC[C@H]1NC(=O)C1(C(F)(F)F)CCC1 [Example 24, N-((1R,2R)-2-(6-(5-(difluoromethyl)-1,3,4-oxadiazol-2-yl)-1-oxo-1,3-dihydro-2H-isoindol-2-yl)cyclohexyl)-1-(trifluoromethyl)cyclobutanecarboxamide] |
| 99 | COC1(C(=O)N[C@@H]2CCCC[C@H]2N2Cc3ccc(-c4nnc(C(F)F)o4)cc3C2=O)CCC1 [Example 25, N-((1R,2R)-2-(6-(5-(difluoromethyl)-1,3,4-oxadiazol-2-yl)-1-oxo-1,3-dihydro-2H-isoindol-2-yl)cyclohexyl)-1-methoxycyclobutanecarboxamide] |
| 98 | O=C(CC1(O)CCCC1)N[C@@H]1CCCC[C@H]1N1Cc2ccc(-c3nnc(C(F)F)o3)cc2C1=O [Example 26, N-((1R,2R)-2-(6-(5-(difluoromethyl)-1,3,4-oxadiazol-2-yl)-1-oxo-1,3-dihydro-2H-isoindol-2-yl)cyclohexyl)-2-(1-hydroxycyclopentyl)acetamide] |
| 100 | O=C(N[C@@H]1CCCC[C@H]1N1Cc2ccc(-c3nnc(C(F)F)o3)cc2C1=O)c1cocn1 [Example 27, N-((1R,2R)-2-(6-(5-(difluoromethyl)-1,3,4-oxadiazol-2-yl)-1-oxo-1,3-dihydro-2H-isoindol-2-yl)cyclohexyl)-1,3-oxazole-4-carboxamide] |
| 100 | O=C(N[C@@H]1CCCC[C@H]1N1Cc2ccc(-c3nnc(C(F)F)o3)cc2C1=O)C(F)F [Example 28, N-((1R,2R)-2-(6-(5-(difluoromethyl)-1,3,4-oxadiazol-2-yl)-1-oxo-1,3-dihydro-2H-isoindol-2-yl)cyclohexyl)-2,2-difluoroacetamide] |
| 97 | O=C1COCCN1[C@@H]1CCCC[C@H]1N1Cc2ccc(-c3nnc(C(F)F)o3)cc2C1=O [Example 30, 6-(5-(difluoromethyl)-1,3,4-oxadiazol-2-yl)-2-((1R,2R)-2-(3-oxomorpholin-4-yl)cyclohexyl) isoindolin-1-one] |
| 97 | O=C1NCCCN1[C@@H]1CCCC[C@H]1N1Cc2ccc(-c3nnc(C(F)F)o3)cc2C1=O [Example 31, 6-(5-(difluoromethyl)-1,3,4-oxadiazol-2-yl)-2-((1R,2R)-2-(2-oxotetrahydropyrimidin-1(2H)-yl)cyclohexyl) isoindolin-1-one] |
| 91 | N[C@@H]1CCCC[C@H]1N1Cc2ccc(-c3nnc(C(F)F)o3)cc2C1=O [Example 38, 2-((1R,2R)-2-aminocyclohexyl)-6-(5-(difluoromethyl)-1,3,4-oxadiazol-2-yl)isoindolin-1-one] |
| 100 | CC(F)(F)C(=O)N[C@@H]1CCCC[C@H]1N1Cc2ccc(-c3nnc(C(F)F)o3)cc2C1=O [Example 40, N-((1R,2R)-2-(6-(5-(difluoromethyl)-1,3,4-oxadiazol-2-yl)-1-oxo-1,3-dihydro-2H-isoindol-2-yl)cyclohexyl)-2,2-difluoropropanamide] |
